Data from patent EP0811615A1, “1-Aryl-5-(substituted alkyl (thio) amido) pyrazoles and their use as pesticides” (RHONE-POULENC AGROCHIMIE, priority 1996, dated 1997).
Where two headings read alike, the source gives them in different places.

Legend:
southern armyworm = assay: Southern armyworm foliar spray test on bean plants; format: in vivo; details: Spodoptera eridania, 120 h; foliar application at 100 ppm; second instar larvae, held five days; read-out: pest mortality SAW
Procedure: (§1) For mite, aphid, southern armyworm, Mexican bean beetle, and tobacco budworm tests, a solution or suspension was prepared by adding 10 mg of the test compound to a solution of 160 mg of dimethylformamide, 838 mg of acetone, 2 mg of a 3:1 ratio of Triton X-172 : Triton X-152 (respectively, mainly anionic and nonionic low foam emulsifiers which are each anhydrous blends of alkylaryl polyether alcohols with organic sulfonates), and […] of water. The result was a concentration of 100 ppm of the test compound.
(§2) Southern armyworm: Potted bean plants, were placed on a revolving turntable and sprayed with 100 ml of the 100 ppm test compound formulation by use of a DeVilbiss spray gun set at 40 psig air pressure. As an untreated control, 100 ml of a water-acetone-DMF-emulsifier solution, containing no test compound, were also sprayed on plants. A treated control with a commercial technical compound, either cypermethrin or sulprofos, formulated in the same manner, was tested as a standard. When dry, the leaves were placed in plastic cups lined with moistened filter paper. Five randomly selected second instar southern armyworm larvae were introduced into each cup which was closed and held for five days. Larvae which were unable to move the length of the body, even upon stimulation by prodding, were considered dead.

twospotted spider mite = assay: Twospotted spider mite test; format: in vivo; details: Tetranychus urticae, 144 h, read-out: control of mites
Procedure: Twospotted spider mite: Leaves infested with adult and nymphal stages of the two-spotted spider mite, obtained from a stock culture were placed on the primary leaves of two bean plants growing in a 6 cm. peat pot. A sufficient number of mites (150-200) for testing were transferred to the fresh plants within a period of twenty-four hours. The potted plants (one pot per compound) were placed on a revolving turntable and sprayed, sufficient to wet the plants to runoff, with 100 ml of the 100 ppm test compound formulation by use of a DeVilbiss spray gun set at 40 psig. air pressure. As an untreated control, 100 ml of the water-acetone-DMF-emulsifler solution, containing no test compound, were also sprayed on infested plants. A treated control with a commercial technical compound, either dicofol or hexythiazox, formulated in the same manner, was tested as a standard. The sprayed plants were held for six days, after which a mortality count of motile forms was made.

housefly = assay: House fly bait test; format: in vivo; details: Musca domestica; bait application at 100 ppm; adult flies, after 24 hours; read-out: pest mortality HF
Text: For housefly tests, the formulation was initially prepared in a similar manner to the above, but in 16.3 g of water with corresponding adjustment of other components, providing a 200 ppm concentration. Final dilution with an equal volume of a 20% by weight aqueous solution of sucrose provided a 100 ppm concentration of the test compound. When necessary, sonication was provided to insure complete dispersion.
House fly: Four to six day old adult house flies were reared according to the specifications of the Chemical Specialties Manufacturing Association (Blue Book, McNair-Dorland Co., N.Y. 1954; pages 243-244, 261) under controlled conditions. The flies were immobilized by anesthetizing with carbon dioxide and twenty five immobilized individuals, males and females, were transferred to a cage consisting of a standard food strainer and a wrapping-paper-covered surface. Ten ml of the 100 ppm test compound formulation were added to a soufflé cup containing an absorbent cotton pad. As an untreated control, 10 ml of a water-acetone-DMF-emulsifier-sucrose solution, containing no test compound, were applied in a similar manner. A treated control with a commercial technical compound, malathion, formulated in the same manner, was tested as a standard. The bait cup was introduced inside the food strainer prior to admitting the anesthetized flies.

tobacco budworm = assay: Tobacco budworm foliar spray test on cotton plants; format: in vivo; details: Heliothis virescens, 120 h; foliar application at 100 ppm; second instar larvae, held five days; read-out: pest mortality TBW
Procedure: as §1
Tobacco budworm: Potted cotton plants were placed on a revolving turntable and sprayed with 100 ml of the 100 ppm test compound formulation by use of a DeVilbiss spray gun set at 40 psig air pressure. As an untreated control, 100 ml of a water-acetone-DMF-emulsifier solution, containing no test compound, were also sprayed on plants. A treated control with a commercial technical compound, either cypermethrin or sulprofos, formulated in the same manner, was tested as a standard. When dry, the leaves were placed in plastic dishes containing a piece of filter paper and a moistened dental wick. One randomly selected second instar tobacco budworm larva was then introduced into each cup which was closed and held for five days. Larvae unable to move the length of their body, even upon stimulation by prodding, were considered dead.

[1] = test system: buckthorn or cotton aphid; assay: Buckthorn or cotton aphid foliar spray test; format: in vivo, Aphis nasturtii / Aphis gossypii; details: Aphis gossypii; foliar application at 100 ppm; counted after one day (buckthorn aphid) or three days (cotton aphid); read-out: pest mortality BA*/CA
Procedure: as §1
Buckthorn or cotton aphid: Adult and nymphal stages of buckthorn or cotton aphid were reared on potted dwarf nasturtium or cotton plants, respectively. The potted plants (one pot per compound tested) infested with 100-150 aphids, were placed on a revolving turntable and sprayed with 100 ml of the 100 ppm test compound formulation by use of a DeVilbiss spray gun set at 40 psig air pressure. As an untreated control, 100 ml of a water-acetone-DMF-emulsifier solution, containing no test compound, were also sprayed on infested plants. A treated control with a commercial technical compound, malathion or cyhalothrin, formulated in the same manner, was tested as a standard. After spraying, the pots were stored for one day on buckthorn aphid or three days for cotton aphid, after which the dead aphids were counted.

[2] = test system: southern root-knot nematode; assay: Southern root-knot nematode soil test on tomato; format: in vivo; parameters: dose or concentration left out as unconfirmed; details: Meloidogyne incognita; Soil Conc. at 21 Kg/ha; second stage juveniles; read-out: pest mortality Nema (J2)
Procedure: For southern root-knot nematode and systemic tests for southern armyworm, cotton aphid, tobacco budworm and greenbug, a stock solution or suspension was prepared by adding 15 mg of the test compound to 250 mg of dimethylformamide, 1250 mg of acetone and 3 mg of the emulsifier blend referenced above. Water was then added to provide a test compound concentration of 150 ppm. When necessary, sonication was provided to insure complete dispersion.
Southern root-knot nematode: Infected roots of tomato plants, containing egg masses of southern root-knot nematode, were removed from a stock culture and cleaned of soil by shaking and washing with tap water. The nematode eggs were separated from the root tissue and rinsed with water. Samples of the egg suspension were placed on a fine screen over a receiving bowl, in which the water level was adjusted to be in contact with the screen. From the bowl, juveniles were collected on a fine screen. The bottom of a cone-shaped container was plugged with coarse vermiculite and then filled to within 1.5 cm of the top with about a 200 ml volume of pasteurized soil. Then into a hole made in the center of the soil in the cone was pipetted an aliquot of the 150 ppm test compound formulation. A treated control with a commercial technical compound, fenamifos, formulated in a similar manner, was tested as a standard. As an untreated control, an aliquot of a water-acetone-DMF-emulsifier solution, containing no test compound, was applied in a similar manner. Immediately after treatment of the soil with the test compound there were added to the top of each cone 1000 second stage juvenile southern root-knot nematodes. After 3 days, a single healthy tomato seedling was then transplanted into the cone. The cone, containing the infested soil and tomato seedling, was kept in the greenhouse for 3 weeks. At the termination of the test, […], […]

Mexican bean beetle = Mexican bean beetle foliar spray test on bean plants; format: in vivo; details: Epilachna varivestis, 120 h; foliar application at 100 ppm; second instar larvae, held five days; read-out: pest mortality MBB
Procedure: as §1
as §2, with “Mexican bean beetle:” for “Southern armyworm:”, “plants” for “plants,”, “formulation, sufficient to wet the plants to runoff,” for “formulation”, “Mexican bean beetle” for “southern armyworm”

SMILES | mortality at 100 ppm (southern armyworm) [%] | mortality at 100 ppm (twospotted spider mite; 100 ppm in foliar bait tests) [%] | mortality at 100 ppm (housefly) [%] | mortality at 100 ppm (tobacco budworm) [%] | mortality at 100 ppm [1] [%] | mortality [2] [%] | mortality at 100 ppm (Mexican bean beetle) [%] | mortality at 100 ppm (twospotted spider mite; foliar) [%]
COCC(=O)Nc1c(SC(F)(Cl)Cl)c(C#N)nn1-c1c(Cl)cc(OC(F)(F)F)cc1Cl [Compound 46] | 70 to 100 | 30 to 70 | 70 to 100 | 70 to 100 | – | – | – | –
COC(C)C(=O)Nc1c(S(=O)(=O)C(F)(F)F)c(C#N)nn1-c1c(Cl)cc(C(F)(F)F)cc1Cl (stereo not drawn) [Compound 25] | 70 to 100 | – | 70 to 100 | – | 70 to 100 | 70 to 100 | 70 to 100 | –
COC(C)C(=O)Nc1c([S+]([O-])C(F)(F)F)c(C#N)nn1-c1c(Cl)cc(C(F)(F)F)cc1Cl (stereo not drawn) [Compound 24] | 70 to 100 | – | 70 to 100 | – | – | 70 to 100 | 70 to 100 | 30 to 70
COC(C)C(=O)Nc1c(SC(F)(Cl)Cl)c(C#N)nn1-c1c(Cl)cc(OC(F)(F)F)cc1Cl (stereo not drawn) [Compound 47] | 70 to 100 | 30 to 70 | 70 to 100 | 70 to 100 | – | – | – | –
COCC(=O)Nc1c(S(=O)(=O)C(F)(F)F)c(C#N)nn1-c1ncc(C(F)(F)F)cc1Cl [Compound 50] | 70 to 100 | – | 70 to 100 | – | 70 to 100 | 70 to 100 | – | –
CCOCC(=O)Nc1c(SC(F)(F)F)c(C#N)nn1-c1c(Cl)cc(C(F)(F)F)cc1Cl [Compound 2] | 70 to 100 | – | 70 to 100 | 70 to 100 | 70 to 100 | – | 70 to 100 | –
COCCOCC(=O)Nc1c(S(=O)(=O)C(F)(F)F)c(C#N)nn1-c1c(Cl)cc(C(F)(F)F)cc1Cl [Compound 13] | 70 to 100 | – | – | – | 70 to 100 | 70 to 100 | – | –
